Assay results as given in patent US8304447B2, “2-acylaminopropoanol-type glucosylceramide synthase inhibitors” (Genzyme Corporation, priority 2007, dated 2012).
Where two headings read alike, the source gives them in different places.

Test system: GM3
Experiment: GM3 Elisa assay
Format: cell-based
Details: B16-FO cells, read-out: IC50_uM_Mean
Protocol: B16-FO cells from ATCC (American Tissue Culture Collection) were grown in DMEM media (ATCC) with 10% Fetal Bovine Serum (Hyclone) and Pen/Step/Glutamine (Biowhittaker). 4000 cells per well were plated on collagen coated plates (BD) and allowed to attach for 6 hours in an incubator (37 degrees, 5% CO2). After 6 hours the compounds and controls were added to the wells, the plates mixed and returned to the incubator for 2 days. Day of assay the cells were fixed for 20 minutes with 1% formaldehyde and then washed with Tris Buffered Saline (TBS) 3 times, 150 μl of TBS was left in the wells and 50 μl of goat serum (Invitrogen) was added, the plates mixed and incubated for 1 hour at room temperature. The plates were flicked and the cells incubated with the monoclonal Antibody to GM3 (NeuAc) (Cosmo) for 45 minutes as room temperature. The plates were then washed 3 times with TBS, leaving 150 μl of TBS in the wells and Peroxidase AffinPure F (ab′) 2 frag Gt Anti-mouse IgM, μ Chain Specific (Jackson Immuno Research) was added in 50 μl, the plates mixed and incubated for 45 minutes at room temperature. The plates were washed 3 times with TBS, flicked and blotted and 100 μl of Quantablu (Pierce) was added to the wells and incubated for 1 hour then read on a Fluorometer at Ex 325 and Em 420. The data was then analyzed using standard programs.

[1] = 48 h, Table 1, 2 days incubation
[2] = 48 h, Table 2, 2 days incubation

Row | Compound | IC50 (Table 3 (IC 50 Values)) [µM] | other results
1 | COc1ccc(C(=O)CCCCC(=O)N[C@H](CN2CCCC2)[C@H](O)c2ccc(OC[C@H](C)CO)cc2)cc1 [Compound 439] | 0.1 to 1 | –
2 | Cc1ccc(OCCC(=O)N[C@H](CN2CC[C@H](O)C2)[C@H](O)c2ccc(OC(C)C)cc2)cc1 [Compound 738] | ≤ 0.1 | –
3 | O=C(Nc1ccc2ccccc2c1)N[C@H](CN1CCCC1)[C@H](O)c1ccc2c(c1)OCCO2 [Compound 69, 1-((1R,2R)-1-(2,3-dihydrobenzo[β][1,4]dioxin-6-yl)-1-hydroxy-3-(pyrrolidin-1-yl)propan-2-yl)-3-(naphthalen-2-yl)urea] | – | IC50 [1]: 0.1 to 1 µM
4 | O=C(CCCc1nc(-c2cccs2)no1)N[C@H](CN1CCCC1)[C@H](OC(=O)CCCc1nc(-c2cccs2)no1)c1ccc2c(c1)OCCO2 [Compound 254] | – | IC50 [2]: 0.1 to 1 µM
5 | COc1ccc(C(=O)CCCCCC(=O)N[C@H](CN2CCCC2)[C@H](O)c2ccc(OCc3ccccc3)cc2)cc1 [Compound 704] | ≤ 0.1 | –
6 | COc1ccc(OCCC(=O)N[C@H](CN2CCCC2)[C@H](O)c2ccccc2OC)cc1 [Compound 700] | 0.1 to 1 | –
7 | CCCCCCOc1ccc([C@@H](O)[C@@H](CN2CC[C@@H](F)C2)NC(=O)CCCCC(=O)c2ccc(OC)cc2)cc1 [Compound 369] | ≤ 0.1 | –
8 | COc1ccc(C(=O)CCCCCC(=O)N[C@H](CN2CCCC2)[C@H](O)c2ccc(-c3ccccc3)cc2)cc1 [Compound 693] | ≤ 0.1 | –
9 | O=C(CCCOc1ccc(F)cc1)N[C@H](CN1CC[C@@H](F)C1)[C@H](O)c1ccc2c(c1)OCCO2 [Compound 567] | 0.1 to 1 | –
10 | O=C(CCCn1cccn1)N[C@H](CN1CCCC1)[C@H](O)c1ccc2c(c1)OCCO2 [Compound 643] | 1 to 3 | –
11 | COc1ccc(OCCC(=O)N[C@H](CN2CC[C@@H](O)C2)[C@H](O)c2ccc3c(c2)OCCO3)cc1 [Compound 513] | 3 to 10 | –
12 | COc1ccc(OCCC(=O)N[C@H](CN2CCCC2)[C@H](O)c2ccc(OCCOc3ccc(Cl)cc3)cc2)cc1 [Compound 723] | ≤ 0.1 | –
13 | O=C(CCCC(=O)c1ccc(F)cc1)N[C@H](CN1C2CCC1CC2)[C@H](O)c1ccc2c(c1)OCCO2 [Compound 474] | 0.1 to 1 | –
14 | COCCc1ccc([C@@H](O)[C@@H](CN2CCCC2)NC(=O)CCCCCC(=O)c2ccc(OC)cc2)cc1 [Compound 479] | ≤ 0.1 | –
15 | O=C(N[C@H](CN1CCCC1)[C@H](O)c1ccc2c(c1)OCCO2)C1CCOCC1 [Compound 579] | 3 to 10 | –
16 | COc1ccc(C(=O)CCCCCC(=O)N[C@H](CN2CCC(C)(C)C2)[C@H](O)c2ccc3c(c2)OCCO3)cc1 [Compound 520] | 1 to 3 | –
17 | Cc1ccc(C(=O)CCCC(=O)N[C@H](CN2CCCC2)[C@H](O)c2ccc3c(c2)OCCO3)cc1 [Compound 283, N-((1R,2R)-1-(2,3-dihydrobenzo[b][1,4]dioxin-6-yl)-1-hydroxy-3-(pyrrolidin-1-yl)propan-2-yl)-5-oxo-5-p-tolylpentanamide] | – | IC50 [2]: ≤ 0.1 µM
18 | COc1ccc(C(=O)CCCC(=O)N[C@H](CN2CCCC2)[C@H](O)c2ccc(OC)c(C)c2)cc1 [Compound 386] | 0.1 to 1 | –
19 | O=C(Cc1cccc(F)c1)N[C@H](CN1CCCC1)[C@H](O)c1ccc2c(c1)OCCO2 [Compound 53, N-((1R,2R)-1-(2,3-dihydrobenzo[β][1,4]dioxin-6-yl)-1-hydroxy-3-(pyrrolidin-1-yl)propan-2-yl)-2-(3-fluorophenyl)acetamide] | – | IC50 [1]: 1 to 3 µM
20 | O=C(CCCCc1nc(C2CC2)no1)N[C@H](CN1CCCC1)[C@H](O)c1ccc2c(c1)OCCO2 [Compound 650] | 0.1 to 1 | –
21 | COc1ccc(OCCC(=O)N[C@H](CN2CCOCC2)[C@H](O)c2ccc3c(c2)OCCO3)cc1 [Compound 257, N-((1R,2R)-1-(2,3-dihydrobenzo[β][1,4]dioxin-6-yl)-1-hydroxy-3-morpholinopropan-2-yl)-3-(4-methoxyphenoxy)propanamide] | – | IC50 [2]: 3 to 10 µM
22 | O=C(CCC(=O)N[C@H](CN1CCCC1)[C@H](O)c1ccc2c(c1)OCCO2)NC1CCCCC1 [Compound 689] | 3 to 10 | –
23 | CCCCCCCC(=O)N[C@H](CN1CCC1)[C@H](O)c1ccc2c(c1)OCCO2 [Compound 594] | 1 to 3 | –
24 | CC[C@H](C)COc1ccc([C@@H](O)[C@@H](CN2CCCC2)NC(=O)CCCCC(=O)c2ccc(OC)cc2)cc1 [Compound 441] | ≤ 0.1 | –
25 | COc1c(C)cc(C(=O)CCCCC(=O)N[C@H](CN2CCCC2)[C@H](O)c2ccc3c(c2)OCCO3)cc1C [Compound 140, N-((1R,2R)-1-(2,3-dihydrobenzo[β][1,4]dioxin-6-yl)-1-hydroxy-3-(pyrrolidin-1-yl)propan-2-yl)-6-(4-methoxy-3,5-dimethylphenyl)-6-oxohexanamide] | – | IC50 [1]: ≤ 0.1 µM
26 | COc1ccc(C(=O)CCCC(=O)N[C@H](CN2CCCC2)[C@H](O)c2sccc2C)cc1 [Compound 361] | 3 to 10 | –
27 | CCCCOc1ccc([C@@H](O)[C@@H](CN2CCCC2)NC(=O)CCOc2ccc(OC)cc2)cc1 [Compound 412] | ≤ 0.1 | –

Row | Compound | IC50 (Table 3 (IC 50 Values)) [µM] | other results
28 | COc1ccc(OCCC(=O)N[C@H](CN2CCCC2)[C@H](O)c2ccc(O)cc2)cc1 [Compound 712] | 0.1 to 1 | –
29 | O=C(CCCCS(=O)(=O)C1CCCCC1)N[C@H](CN1CC[C@@H](F)C1)[C@H](O)c1ccc(OCc2ccccc2)cc1 [Compound 572] | 0.1 to 1 | –
30 | COc1ccc(C(=O)CCCCC(=O)N[C@H](CN2CCCC2)[C@H](O)c2ccc(OCCC3CCCCC3)cc2)cc1 [Compound 419] | ≤ 0.1 | –
31 | O=C(CCCOn1nnc2ccccc21)N[C@H](CN1CCCC1)[C@H](O)c1ccc2c(c1)OCCO2 [Compound 642] | 0.1 to 1 | –
32 | COC(=O)CO[C@H](c1ccc2c(c1)OCCO2)[C@@H](CN1CCCC1)NC(=O)CCOc1ccc(OC)cc1 [Compound 275] | – | IC50 [2]: ≤ 0.1 µM
33 | COc1ccc(OCCC(=O)N[C@H](CN2CCC(F)(F)CC2)[C@H](O)c2ccc3c(c2)OCCO3)cc1 [Compound 627] | 3 to 10 | –
34 | COc1ccc(C(=O)CCCCCC(=O)N[C@H](CN2CCC(F)(F)CC2)[C@H](O)c2ccc3c(c2)OCCO3)cc1 [Compound 625] | 3 to 10 | –
35 | Cc1ccccc1CC(=O)N[C@H](CN1CCCC1)[C@H](O)c1ccc2c(c1)OCCO2 [Compound 35, N-((1R,2R)-1-(2,3-dihydrobenzo [β][1,4]dioxin-6-yl)-1-hydroxy-3-(pyrrolidin-1-yl)propan-2-yl)-2-o-tolylacetamide] | – | IC50 [1]: 1 to 3 µM
36 | Cc1ccc(C(=O)CCC(=O)N[C@H](CN2CCCC2)[C@H](O)c2ccc3c(c2)CCCC3)cc1 [Compound 264] | – | IC50 [2]: ≤ 0.1 µM
37 | O=C(N[C@H](CN1CCCC1)[C@H](O)c1ccc2c(c1)OC(F)(F)O2)OCc1ccccc1 [Compound 404] | 3 to 10 | –
38 | COc1ccc(C(=O)CCCCC(=O)N[C@H](CN2CCCC2)[C@H](O)c2ccc(OCCCOc3ccccc3F)cc2)cc1 [Compound 367] | ≤ 0.1 | –
39 | CCCCCCCC(=O)N[C@H](CCN1CCOCC1)[C@H](O)c1ccc2c(c1)OCCO2 [Compound 686] | 3 to 10 | –
40 | COc1ccc(C(=O)CCCCC(=O)N[C@H](CN2CCCC2)[C@H](O)c2ccc(OCCOc3cccc(C(F)(F)F)c3)cc2)cc1 [Compound 365] | ≤ 0.1 | –
41 | CCCCCCCC(=O)N[C@@H](CN1CCCC1)[C@@H](O)c1ccc2c(c1)OCCO2 [Compound 677] | 3 to 10 | –
42 | O=C(CC1CCOCC1)N[C@H](CN1CCCC1)[C@H](O)c1ccc2c(c1)OCCO2 [Compound 580] | 3 to 10 | –
43 | CCCCCCCC(=O)N[C@H](CN1CCC[C@@H]1COC)[C@H](O)c1ccc2c(c1)OCCO2 [Compound 540] | 3 to 10 | –
44 | COc1ccc(C(=O)CCCCCC(=O)N[C@H](CN2CCCC2)[C@H](O)c2ccc3c(c2)OC(F)(F)C(F)(F)O3)cc1 [Compound 401] | 0.1 to 1 | –
45 | Cc1noc(CCCCC(=O)N[C@H](CN2CC[C@@H](F)C2)[C@H](O)c2ccc3c(c2)OCCO3)n1 [Compound 646] | 3 to 10 | –
46 | COc1ccc(C(=O)CCCCC(=O)N[C@H](CN2CC[C@H](O)C2)[C@H](O)c2ccc3c(c2)OCCO3)cc1 [Compound 655] | 0.1 to 1 | –
47 | CC1CCN(C[C@@H](NC(=O)CCCCCC(=O)c2ccccc2)[C@H](O)c2ccc3c(c2)OCCO3)CC1 [Compound 612] | 3 to 10 | –
48 | O=C(NCc1ccc(Cl)cc1)N[C@H](CN1CCCC1)[C@H](O)c1ccc2c(c1)OCCO2 [Compound 43, 1-(4-chlorobenzyl)-3-((1R,2R)-1-(2,3-dihydrobenzo[β][1,4]dioxin-6-yl)-1-hydroxy-3-(pyrrolidin-1-yl)propan-2-yl)urea] | – | IC50 [1]: ≤ 0.1 µM
49 | O=C(N[C@H](CO)[C@H](O)c1ccc2c(c1)OC(F)(F)O2)OCc1ccccc1 [Compound 406] | 3 to 10 | –
50 | CCCCCCCCCCCCCCCC(=O)N[C@H](CN1CCCC1)[C@H](O)c1ccc(O)cc1 [Compound 309] | – | IC50 [2]: ≤ 0.1 µM
51 | O=C(CCCCCC(=O)c1ccc(F)cc1)N[C@H](CN1CC[C@@H](F)C1)[C@H](O)c1ccc2c(c1)OCCO2 [Compound 565] | ≤ 0.1 | –
52 | CCCCCCCC(=O)N[C@H](CN1CCCC1)[C@H](O)c1ccc(OC)c(OC)c1 [Compound 321] | – | IC50 [2]: 1 to 3 µM
53 | CCCCCCCC(=O)N[C@H](CN1CC[C@@H](O)C1)[C@H](O)c1ccc2c(c1)OCCO2 [Compound 512] | 1 to 3 | –
54 | COc1ccc(S(=O)(=O)CCCCCC(=O)N[C@H](CN2CCCC2)[C@H](O)c2ccc3c(c2)OCCO3)cc1 [Compound 555] | 0.1 to 1 | –
